Assay results published in PMC3534050, “Simultaneous Single-Sample Determination of NMNAT Isozyme Activities in Mouse Tissues” (PLoS ONE, 2012).
Read-outs that look alike come from different tables or passages of the source.

Test system: T1, Wld^S
T1 construct: gene Nmnat1; full-length Wld^S ORF (1119 bp): N-terminal Ube4b fragment fused to NMNAT1; predicted mass 44001 Da; with Ubiquitin conjugation factor E4 B
Assay: C18-HPLC of NAD formed, nonlinear fit
Assay type: biochemical, Mus musculus
Conditions: HEPES/KOH pH 7.5, MgCl2, 37°C
Source text: C18-HPLC of NAD formed, nonlinear fit on Wld^S

Km (read-out: ATP / K m, co-substrate NMN, ATP 25–175 µM) [µM] | Km (co-substrate ATP, NMN 5–100 µM, read-out: NMN / K m) [µM] | Structure (SMILES)
29.6 ± 1.8 | – | Nc1ncnc2c1ncn2[C@@H]1O[C@H](COP(=O)(O)OP(=O)(O)OP(=O)(O)O)[C@@H](O)[C@H]1O [ATP]
– | 32.2 ± 1.2 | NC(=O)c1ccc[n+]([C@@H]2O[C@H](COP(=O)(O)O)[C@@H](O)[C@H]2O)c1 [NMN]
